Assay results published in the NIST ThermoML archive (doi:10.1016/j.jct.2008.10.010).

Experiment: molar heat capacity at constant pressure; xn = mol fraction of the nth substance listed
Details: 101.3 kPa, Liquid, Small sample (50 mg) DSC

CCC(C)(C)O [2-methylbutan-2-ol] + CCCCCCC
molar heat capacity at constant pressure [J/K/mol]
Details	309.15 K	310.16 K	311.14 K	312.15 K	313.16 K	314.14 K	315.15 K	316.16 K	317.14 K	318.15 K
x1 = 0.0061	–	229.11	229.41	229.87	230.16	230.54	231.04	231.41	231.74	232.22
x1 = 0.0249	–	232.84	233.01	233.27	233.44	233.76	234.1	234.24	234.45	234.79
x1 = 0.0494	–	238.76	238.96	239.19	239.44	239.64	239.85	240.04	240.17	240.39
x1 = 0.1	–	246.57	246.82	247.28	247.62	247.94	248.26	248.61	248.85	249.22
x1 = 0.1547	–	251.57	252.06	252.56	253.04	253.52	254.01	254.44	254.85	255.3
x1 = 0.1999	–	254.63	255.2	255.82	256.43	257.01	257.6	258.06	258.58	259.15
x1 = 0.2993	–	259.26	259.96	260.68	261.51	262.2	262.9	263.57	264.25	264.95
x1 = 0.4051	–	261.91	262.71	263.58	264.53	265.3	266.17	266.93	267.74	–
x1 = 0.4986	262.32	263.33	264.23	265.2	266.22	267.11	268.03	268.88	269.71	–
x1 = 0.5981	262.83	263.88	264.84	265.84	266.9	267.83	268.84	269.72	270.72	–
x1 = 0.7015	262.76	263.9	264.89	265.94	267.08	268.09	269.07	270.07	271.01	–
x1 = 0.8023	261.98	263.1	264.11	265.15	266.27	267.27	268.34	269.26	270.34	–
x1 = 0.9139	260.52	261.67	262.65	263.76	264.91	265.99	267.02	268	269.05	–
x1 = 0.9609	259.67	260.83	261.81	262.89	264	265.01	266.09	267.03	268.07	–
